According to US20250136606A1, “MODULATORS OF TRPML, THEIR COMPOSITIONS AND METHODS OF USE” (Caraway Therapeutics, Inc., priority 2021, published 2025):
Like-named read-outs stand apart in the source and are kept apart here.

Columns and labels:
Type in all cases: cell-based
[1] = target: T1, TRPML3 (Homo sapiens, UniProt Q8TDD5); test: Fluorescent TRPML3 assay (performed as for TRPML1, substituting the TRPML3 subtype)
T1 construct: expressed in transfected cells
T1 sequence (Q8TDD5 1-553): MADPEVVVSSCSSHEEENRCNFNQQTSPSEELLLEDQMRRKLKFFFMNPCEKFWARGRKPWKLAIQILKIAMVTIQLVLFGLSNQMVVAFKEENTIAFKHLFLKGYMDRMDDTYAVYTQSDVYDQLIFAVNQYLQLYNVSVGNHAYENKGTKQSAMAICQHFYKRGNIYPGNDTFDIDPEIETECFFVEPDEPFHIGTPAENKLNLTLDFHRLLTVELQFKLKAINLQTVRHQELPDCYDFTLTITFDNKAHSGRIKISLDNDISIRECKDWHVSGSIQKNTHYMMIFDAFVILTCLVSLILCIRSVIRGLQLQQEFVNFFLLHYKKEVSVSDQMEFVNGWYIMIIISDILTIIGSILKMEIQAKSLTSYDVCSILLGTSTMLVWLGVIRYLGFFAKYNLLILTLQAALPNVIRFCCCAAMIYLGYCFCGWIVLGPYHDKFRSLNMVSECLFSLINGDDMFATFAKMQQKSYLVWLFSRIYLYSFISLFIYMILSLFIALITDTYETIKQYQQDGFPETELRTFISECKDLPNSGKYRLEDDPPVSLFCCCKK
In short: (§1)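 HEK-293 Trex, dox-induced (0.5 ug/mL), mutated for surface expression. Fluo4-AM 1 micromolar load ~60 min, dark; buffer modified Ringer's, 10 mM Ca. Cpds 20 micromolar–6 nanomolar final, half-log, n=3. Read ex 480/em 540; % activity vs controls; EC50 nonlinear fit.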

[2] = target: TRPML1 (Homo sapiens, UniProt Q9GZU1); test: Fluorescent TRPML1 assay (Fluo4-AM calcium fluorescence in doxycycline-induced HEK-293 Trex cells)
In short: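 HEK-293 Trex cells stably expressing surface-directed mutant human TRPML1, induced with 0.5 µg/mL doxycycline overnight, were loaded with 1 µM Fluo4-AM and added to compound (6 nM–20 µM final, half-log steps, triplicate) in Ringer's with 10 mM calcium. Fluorescence ex 480/em 540; EC50 by non-linear regression versus plate controls.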

[3] = target: T2, TRPML2 (Homo sapiens, UniProt Q8IZK6); test: Fluorescent TRPML2 assay (performed as for TRPML1, substituting the TRPML2 subtype)
T2 construct: expressed in transfected cells
T2 sequence (Q8IZK6 1-566): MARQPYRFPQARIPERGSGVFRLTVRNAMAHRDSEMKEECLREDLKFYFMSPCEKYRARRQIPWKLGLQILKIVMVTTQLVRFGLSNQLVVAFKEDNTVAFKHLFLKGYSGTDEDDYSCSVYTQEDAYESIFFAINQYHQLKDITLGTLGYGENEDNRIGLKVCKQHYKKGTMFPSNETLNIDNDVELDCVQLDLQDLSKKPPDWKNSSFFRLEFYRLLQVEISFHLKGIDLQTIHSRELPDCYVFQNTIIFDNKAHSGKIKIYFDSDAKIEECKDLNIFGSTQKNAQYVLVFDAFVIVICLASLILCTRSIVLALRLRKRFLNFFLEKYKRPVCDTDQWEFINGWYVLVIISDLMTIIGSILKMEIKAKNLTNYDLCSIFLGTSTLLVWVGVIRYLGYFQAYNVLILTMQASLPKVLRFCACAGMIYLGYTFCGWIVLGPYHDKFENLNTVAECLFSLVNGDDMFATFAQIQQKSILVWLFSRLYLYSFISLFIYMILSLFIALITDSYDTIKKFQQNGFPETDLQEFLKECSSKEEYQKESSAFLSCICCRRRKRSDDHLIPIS
In short: as §1

TRPML1, sequence (Q9GZU1 whole entry L15A/L16A/L577A/L578A, form open): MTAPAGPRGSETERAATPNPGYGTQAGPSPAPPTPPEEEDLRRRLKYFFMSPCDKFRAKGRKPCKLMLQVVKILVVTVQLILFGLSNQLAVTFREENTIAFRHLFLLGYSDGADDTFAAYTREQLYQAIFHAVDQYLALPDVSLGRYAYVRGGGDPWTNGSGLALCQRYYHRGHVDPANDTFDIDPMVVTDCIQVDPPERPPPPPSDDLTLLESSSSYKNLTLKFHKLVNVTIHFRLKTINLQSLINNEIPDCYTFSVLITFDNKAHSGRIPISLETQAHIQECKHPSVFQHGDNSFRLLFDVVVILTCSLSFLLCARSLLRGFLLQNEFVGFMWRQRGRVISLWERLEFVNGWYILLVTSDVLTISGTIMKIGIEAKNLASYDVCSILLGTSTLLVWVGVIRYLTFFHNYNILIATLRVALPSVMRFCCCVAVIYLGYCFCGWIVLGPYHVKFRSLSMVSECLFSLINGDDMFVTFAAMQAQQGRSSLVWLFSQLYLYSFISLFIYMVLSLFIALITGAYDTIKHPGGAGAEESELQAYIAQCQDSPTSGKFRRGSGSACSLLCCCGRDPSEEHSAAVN

| Compound | EC50 ([1]; fluorescent calcium assay) [nM] | EC50 ([2]; fluorescent calcium assay) [nM] | EC50 ([3]; fluorescent calcium assay) [nM] | EC50 [1] [nM] | EC50 [2] [nM] | EC50 [3] [nM] |
| --- | --- | --- | --- | --- | --- | --- |
| Cc1nccnc1-c1cn(-c2cc(F)cc(F)c2)c2ncnc(N3CCN(C(=O)OC(C)C)C[C@@H]3C)c12 [Compound 249, Isopropyl (S)-4-(7-(3,5-difluorophenyl)-5-(3-methylpyrazin-2-yl)-7H-pyrrolo[2,3-d]pyrimidin-4-yl)-3-methylpiperazine-1-carboxylate] | 500 to 2000 | > 2000 | > 2000 |  |  |  |
| Cc1cncc(-n2cc(-c3cccnc3)c3c(N4C[C@@H](C)N(C(=O)OC(C)(C)C)C[C@@H]4C)ncnc32)c1 [Compound 178, tert-butyl (2R,5S)-2,5-dimethyl-4-(7-(5-methylpyridin-3-yl)-5-(pyridin-3-yl)-7H-pyrrolo[2,3-d]pyrimidin-4-yl)piperazine-1-carboxylate] | 500 to 2000 | 100 to 500 | > 2000 |  |  |  |
| CCOC(=O)N1CCN(c2ncnc3c2c(-c2ccccc2F)cn3-c2cc(C#N)ccn2)[C@@H](C)C1 [Compound 346, ethyl (S)-4-(7-(4-cyanopyridin-2-yl)-5-(2-fluorophenyl)-7H-pyrrolo[2,3-d]pyrimidin-4-yl)-3-methylpiperazine-1-carboxylate] | < 100 | < 100 | < 100 |  |  |  |
| C[C@@H]1CN(c2ncnc3c2c(-c2ccccc2F)cn3-c2nccc(C#N)n2)[C@@H](C)CN1C(=O)OC(C)(C)C [Compound 460, tert-butyl (2R,5S)-4-(7-(4-cyanopyrimidin-2-yl)-5-(2-fluorophenyl)-7H-pyrrolo[2,3-d]pyrimidin-4-yl)-2,5-dimethylpiperazine-1-carboxylate] | < 100 | < 100 | 100 to 500 |  |  |  |
| Cc1ccnc(-n2cc(C3CC3)c3c(N4C[C@@H](C)N(C(=O)OC(C)(C)C)C[C@@H]4C)ncnc32)c1 [Compound 644, tert-butyl (2R,5S)-4-(5-cyclopropyl-7-(4-methylpyridin-2-yl)-7H-pyrrolo[2,3-d]pyrimidin-4-yl)-2,5-dimethylpiperazine-1-carboxylate] |  |  |  | 100 to 500 | 100 to 500 | 500 to 2000 |
| C[C@@H]1CN(C(=O)OC(C)(C)C(F)(F)F)CCN1c1ncnc2c1c(C1CC1)cn2-c1ccc(Cl)cc1 [Compound 141, 1,1,1-trifluoro-2-methylpropan-2-yl (R)-4-(7-(4-chlorophenyl)-5-cyclopropyl-7H-pyrrolo[2,3-d]pyrimidin-4-yl)-3-methylpiperazine-1-carboxylate] | < 100 | < 100 | 100 to 500 |  |  |  |
| Cc1nccnc1-c1cn(-c2cc(F)cc(F)c2)c2ncnc(N3CCN(C(=O)OC(C)(C)C)[C@H](C)C3)c12 [Compound 242, tert-butyl (R)-4-(7-(3,5-difluorophenyl)-5-(3-methylpyrazin-2-yl)-7H-pyrrolo[2,3-d]pyrimidin-4-yl)-2-methylpiperazine-1-carboxylate] | 100 to 500 | 100 to 500 | 100 to 500 |  |  |  |
| Cc1nccnc1-c1cn(-c2cc(F)cc(F)c2)c2ncnc(N3C[C@@H](C)N(C(=O)OC(C)(C)C)C[C@@H]3C)c12 [Compound 462, tert-butyl (2R,5S)-4-(7-(3,5-difluorophenyl)-5-(3-methylpyrazin-2-yl)-7H-pyrrolo[2,3-d]pyrimidin-4-yl)-2,5-dimethylpiperazine-1-carboxylate] | < 100 | < 100 | 100 to 500 |  |  |  |
| CC1CN(C(=O)OC(C)(C)C)CCN1c1nccc2c1c(-c1cnccn1)cn2-c1cccc(Cl)c1 (stereo not drawn) [Compound 190, tert-Butyl 4-(1-(3-chlorophenyl)-3-(pyrazin-2-yl)-1H-pyrrolo[3,2-c]pyridin-4-yl)-3-methylpiperazine-1-carboxylate] | 100 to 500 | 500 to 2000 | 500 to 2000 |  |  |  |

Results, then the compound that gave them:

| EC50 ([1]; fluorescent calcium assay) [nM] | EC50 ([2]; fluorescent calcium assay) [nM] | EC50 ([3]; fluorescent calcium assay) [nM] | EC50 [1] [nM] | EC50 [2] [nM] | EC50 [3] [nM] | Compound |
| --- | --- | --- | --- | --- | --- | --- |
|  |  |  | < 100 | < 100 | 500 to 2000 | Cc1cn(-c2ccccn2)c2ncnc(N3CCN(C(=O)OC(C)(C)C)C[C@@H]3C)c12 [Compound 690, tert-butyl (S)-3-methyl-4-(5-methyl-7-(pyridin-2-yl)-7H-pyrrolo[2,3-d]pyrimidin-4-yl)piperazine-1-carboxylate] |
| < 100 | 100 to 500 | 500 to 2000 |  |  |  | C[C@H]1CN(C(=O)OC(C)(C)C)CCN1c1ncnc2c1c(N1CCC[C@@H]1CO)cn2-c1cccc(Cl)c1 [Compound 312, tert-butyl (S)-4-(7-(3-chlorophenyl)-5-((R)-2-(hydroxymethyl)pyrrolidin-1-yl)-7H-pyrrolo[2,3-d]pyrimidin-4-yl)-3-methylpiperazine-1-carboxylate] |
| 100 to 500 | 500 to 2000 | > 2000 |  |  |  | COc1cc(-n2cc(C3CC3)c3c(N4CCN(C(=O)OC(C)(C)C)C[C@@H]4C)ncnc32)ccc1F [Compound 317, tert-butyl (S)-4-(5-cyclopropyl-7-(4-fluoro-3-methoxyphenyl)-7H-pyrrolo[2,3-d]pyrimidin-4-yl)-3-methylpiperazine-1-carboxylate] |
| < 100 | < 100 | < 100 |  |  |  | Cc1nc(-n2cc(-c3ccccc3F)c3c(N4CCN(C(=O)OC(C)(C)C)C[C@@H]4C)ncnc32)sc1C#N [Compound 463, tert-butyl (S)-4-(7-(5-cyano-4-methylthiazol-2-yl)-5-(2-fluorophenyl)-7H-pyrrolo[2,3-d]pyrimidin-4-yl)-3-methylpiperazine-1-carboxylate] |
| 500 to 2000 | 500 to 2000 | > 2000 |  |  |  | C[C@H]1CN(C(=O)OC(C)(C)C)CCN1c1ncnc2c1c(CN1CCCC1)cn2-c1cccc(C#N)c1 [Compound 400, tert-butyl (S)-4-(7-(3-cyanophenyl)-5-(pyrrolidin-1-ylmethyl)-7H-pyrrolo[2,3-d]pyrimidin-4-yl)-3-methylpiperazine-1-carboxylate] |
| 500 to 2000 | 500 to 2000 | > 2000 |  |  |  | C[C@H]1CN(C(=O)OC(C)(C)C)CCN1c1ncnc2c1c(C1CC1)cn2C1CCCN(C#N)C1 (stereo partly drawn) [Compound 410, tert-butyl (3S)-4-(7-(1-cyanopiperidin-3-yl)-5-cyclopropyl-7H-pyrrolo[2,3-d]pyrimidin-4-yl)-3-methylpiperazine-1-carboxylate] |
| < 100 | < 100 | < 100 |  |  |  | C[C@H]1CN(C(=O)OC(C)(C)C)CCN1c1ncnc2c1c(-c1ccccc1F)cn2-c1cc(C#N)ccn1 [Compound 268, tert-butyl (S)-4-(7-(4-cyanopyridin-2-yl)-5-(2-fluorophenyl)-7H-pyrrolo[2,3-d]pyrimidin-4-yl)-3-methylpiperazine-1-carboxylate] |
| < 100 | < 100 | 100 to 500 |  |  |  | CC(C)(C)OC(=O)N1CCN(c2ncnc3c2c(C2CC2)cn3-c2ccc(Cl)cc2)CC1 [Compound 107, tert-butyl 4-(7-(4-chlorophenyl)-5-cyclopropyl-7H-pyrrolo[2,3-d]pyrimidin-4-yl) piperazine-1-carboxylate] |
| 100 to 500 | 500 to 2000 | 500 to 2000 |  |  |  | Cc1ccc(Cl)cc1-n1cc(N2CCCC2)c2c(N3CCN(C(=O)OC(C)(C)C)C[C@@H]3C)ncnc21 [Compound 306, tert-butyl (S)-4-(7-(5-chloro-2-methylphenyl)-5-(pyrrolidin-1-yl)-7H-pyrrolo[2,3-d]pyrimidin-4-yl)-3-methylpiperazine-1-carboxylate] |
| 100 to 500 | 500 to 2000 | 500 to 2000 |  |  |  | Cc1nccnc1-c1cn(-c2cccc(OC(F)(F)F)c2)c2ncnc(N3CCN(C(=O)OC(C)(C)C)C[C@@H]3C)c12 [Compound 304, tert-butyl (S)-3-methyl-4-(5-(3-methylpyrazin-2-yl)-7-(3-(trifluoromethoxy)phenyl)-7H-pyrrolo[2,3-d]pyrimidin-4-yl)piperazine-1-carboxylate] |
| < 100 | < 100 | < 100 |  |  |  | C[C@H]1CN(C(=O)OC(C)(C)C)CCN1c1ncnc2c1c(N(C)C)cn2-c1cc(C#N)ccn1 [Compound 426, tert-butyl (S)-4-(7-(4-cyanopyridin-2-yl)-5-(dimethylamino)-7H-pyrrolo[2,3-d]pyrimidin-4-yl)-3-methylpiperazine-1-carboxylate] |
